Experimental data: patent publication US20230022724A1, “NOVEL IMIDAZOPYRAZINE DERIVATIVES” (Hoffmann-La Roche Inc., priority 2018, published 2023)
Counter-ions that a name gives are not always drawn.

Each compound was assayed on Acinetobacter baumannii ATCC17961 (assay: Antimicrobial susceptibility testing: 90% growth inhibitory concentration (IC90) determination). Details: Acinetobacter baumannii ATCC17961, Iso-Sensitest broth, OD 600 nm over 16 h.
Format: cell-based
In short: (§1)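 Compounds in twofold series (e.g. 50 to 0.097 μM final) in Iso-Sensitest broth, inoculated at ~5×10^5 CFU/ml, incubated at 35±2° C. OD600 was read every 20 minutes for 16 h. IC90 was derived from growth inhibition during logarithmic phase.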

IC90 | Compound
33.9 nM | N#CCOc1ccc(-c2cnc3c(Nc4ccc(C(=O)N5CCN(C(=O)[C@@H]6C[C@@H](O)CN6)CC5)c(Cl)c4)nccn23)c(Cl)c1F [Example 33, 2-[3-chloro-4-[8-[3-chloro-4-[4-[(2S,4R)-4-hydroxypyrrolidine-2-carbonyl]piperazine-1-carbonyl]anilino]imidazo[1,2-a]pyrazin-3-yl]-2-fluoro-phenoxy]acetonitrile Formate]
41.2 nM | COc1ccc(-c2cnc3c(Nc4ccc(C(=O)N5CCN(C(=O)[C@@H]6C[C@@H](O)CN6)CC5)c(Cl)c4)nccn23)c(F)c1F [Example 35, [2-chloro-4-[[3-(2,3-difluoro-4-methoxy-phenyl)imidazo[1,2-a]pyrazin-8-yl]amino]phenyl]-[4-[(2S,4R)-4-hydroxypyrrolidine-2-carbonyl]piperazin-1-yl]methanone formate]
72.2 nM | COc1ccc(-c2cnc3c(Nc4cc(F)c(C(=O)N5CCN(C(=O)[C@@H]6C[C@@H](O)CN6)CC5)c(F)c4)nccn23)c(F)c1F [Example 49, (4-(4-((3-(2,3-difluoro-4-methoxyphenyl)imidazo[1,2-a]pyrazin-8-yl)amio)-2,6-difluorobenzoyl)piperazin-1-yl)((2S,4R)-4-hydroxypyrrolidin-2-yl)methanone dihydrochloride]
82.1 nM | COc1ccc(-c2cnc3c(Nc4cc(F)c(C(=O)N5CCN(C(=O)[C@@H]6C[C@@H](O)CN6)CC5)c(Cl)c4)nccn23)c(F)c1F [Example 50, (4-(2-chloro-4-((3-(2,3-difluoro-4-methoxyphenyl)imidazo[1,2-a]pyrazin-8-yl)amino)-6-fluorobenzoyl)piperazin-1-yl)((2S,4R)-4-hydroxypyrrolidin-2-yl)methanone dihydrochloride]
350 nM | N#CCOc1ccc(-c2cnc3c(Nc4ccc(C(=O)N5CCN(C(=O)CN6CCC(C(=O)O)C6)CC5)c(Cl)c4)nccn23)c(F)c1F (centres unmarked) [Example 108, 1-(2-(4-(2-chloro-4-((3-(4-(cyanomethoxy)-2,3-difluorophenyl)imidazo[1,2-a]pyrazin-8-yl)amino)benzoyl)piperazin-1-yl)-2-oxoethyl)pyrrolidine-3-carboxylic acid trifluoroacetate]
69 nM | COc1ccc(-c2cnc3c(Nc4cc(F)c(C(=O)N5CCN(C(=O)[C@@H]6C[C@@H](O)CN6)CC5)c(Br)c4)nccn23)c(F)c1F [Example 109, (4-(2-bromo-4-((3-(2,3-difluoro-4-methoxyphenyl)imidazo[1,2-a]pyrazin-8-yl)amino)-6-fluorobenzoyl)piperazin-1-yl)((2S,4R)-4-hydroxypyrrolidin-2-yl)methanone dihydrochloride]
80 nM | CNCC1(O)CCN(C(=O)c2ccc(Nc3nccn4c(-c5ccc(OC)c(F)c5)cnc34)cc2Cl)CC1 [Example 110, (2-chloro-4-((3-(3-fluoro-4-methoxyphenyl)imidazo[1,2-a]pyrazin-8-yl)amino)phenyl)(4-hydroxy-4-((methylamino)methyl)piperidin-1-yl)methanone]
68 nM | CNCC1(O)CCN(C(=O)c2ccc(Nc3nccn4c(-c5ccc(OC)c(F)c5F)cnc34)cc2Cl)CC1 [Example 111, (2-chloro-4-((3-(2,3-difluoro-4-methoxyphenyl)imidazo[1,2-a]pyrazin-8-yl)amino)phenyl)(4-hydroxy-4-((methylamino)methyl)piperidin-1-yl)methanone]
22 nM | O=C(c1ccc(Nc2nccn3c(-c4ccc(OCF)c(F)c4F)cnc23)cc1Cl)N1CCN(C(=O)[C@@H]2C[C@@H](O)CN2)CC1 [Example 112, [2-chloro-4-[[3-[2,3-difluoro-4-(fluoromethoxy)phenyl]imidazo [1,2-a]pyrazin-8-yl]amino]phenyl]-[4-[(2S,4R)-4-hydroxypyrrolidine-2-carbonyl]piperazin-1-yl]methanone trifluoroacetate]
22 nM | O=C(c1ccc(Nc2nccn3c(-c4ccc(OC(F)F)c(F)c4F)cnc23)cc1Cl)N1CCN(C(=O)[C@@H]2C[C@@H](O)CN2)CC1 [Example 113, [2-chloro-4-[[3-[4-(difluoromethoxy)-2,3-difluoro-phenyl]imidazo[1,2-a]pyrazin-8-yl]amino]phenyl]-[4-[(2S,4R)-4-hydroxypyrrolidine-2-carbonyl]piperazin-1-yl]methanone formate]
56 nM | O=C(c1ccc(Nc2nccn3c(-c4ccc(OC(F)F)c(F)c4F)cnc23)cc1F)N1CCN(C(=O)C2CCN(CC3CCNC3)CC2)CC1 (centres unmarked) [Example 114, (4-(4-((3-(4-(difluoromethoxy)-2,3-difluorophenyl)imidazo[1,2-a]pyrazin-8-yl)amino)-2-fluorobenzoyl)piperazin-1-yl)(1-(pyrrolidin-3-ylmethyl)piperidin-4-yl)methanone bis(2,2,2-trifluoroacetate)]

What follows are compounds tested on Acinetobacter baumannii ATCC17978 in the same assay as above. Details: 90% growth inhibitory concentration, Acinetobacter baumannii ATCC17978, Iso-Sensitest broth, OD 600 nm over 16 h; read-out: ATCC17978 IC90.
Format: cell-based
In short: as §1

Compound | IC90
(R)-1-(2-chloro-4-((3-(3-fluoro-4-methoxyphenyl)imidazo[1,2-a]pyrazin-8-yl)amino)benzoyl)-N-(pyrrolidin-3-yl)piperidin-4-carboxamide hydrochlroide [Example 17] | 220 nM

Same assay, conditions: Acinetobacter baumannii, ATCC17978, 16 h, 90% growth inhibitory concentration, Acinetobacter baumannii ATCC17978, Iso-Sensitest broth, OD 600 nm over 16 h; read-out: ATCC17978 IC90

IC90 | Compound
540 nM | COc1ccc(-c2cnc3c(Nc4ccc(C(=O)N5CCC(O)(CC(=O)N(C)C)CC5)c(Cl)c4)nccn23)cc1F [Example 106, 2-(1-(2-chloro-4-((3-(3-fluoro-4-methoxyphenyl)imidazo[1,2-a]pyrazin-8-yl)amino)benzoyl)-4-hydroxypiperidin-4-yl)-N,N-dimethylacetamide]
260 nM | COc1ccc(-c2cnc3c(Nc4ccc(C(=O)N5CCC(C(=O)NC[C@H](O)[C@@H](O)[C@H](O)[C@H](O)CO)CC5)c(Cl)c4)nccn23)cc1F [Example 107, 1-(2-chloro-4-((3-(3-fluoro-4-methoxyphenyl)imidazo[1,2-a]pyrazin-8-yl)amino)benzoyl)-N-((2S,3R,4R,5R)-2,3,4,5,6-pentahydroxyhexyl)piperidine-4-carboxamide]
